Molecular target: T1, CRF1 receptor (Rattus norvegicus, UniProt P35353)
T1 construct: from tissue; host or cells: rat frontal cortex membranes
T1 sequence (P35353 24-415): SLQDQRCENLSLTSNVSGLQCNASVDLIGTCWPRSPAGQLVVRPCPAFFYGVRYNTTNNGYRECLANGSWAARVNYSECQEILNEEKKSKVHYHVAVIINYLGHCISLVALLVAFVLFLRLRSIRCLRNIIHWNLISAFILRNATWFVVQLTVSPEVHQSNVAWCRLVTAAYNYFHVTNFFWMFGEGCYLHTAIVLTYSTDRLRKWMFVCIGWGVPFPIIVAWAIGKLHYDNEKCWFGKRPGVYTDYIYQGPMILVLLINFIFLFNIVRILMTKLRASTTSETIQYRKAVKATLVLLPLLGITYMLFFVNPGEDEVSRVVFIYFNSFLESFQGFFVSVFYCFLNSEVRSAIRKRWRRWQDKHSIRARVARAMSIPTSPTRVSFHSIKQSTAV
Assay: CRF1 Receptor Binding Assay (rat brain membranes, 125I-ovine-CRF)
Conditions: read-out: Ki, the binding constant to the CRF1 receptor
Method: The following is a description of the isolation of rat brain membranes for use in the standard binding assay as well as a description of the binding assay itself. It is based on a modified protocol described by De Souza (De Souza, 1987).
To prepare brain membranes for binding assays, rat frontal cortex is homogenized in 10 mL of ice cold tissue buffer (50 mM HEPES buffer pH 7.0, containing 10 mM MgCl2, 2 mM EGTA, 1 μg/ml aprotinin, 1 μg/ml leupeptin and 1 μg/ml pepstatin). The homogenate is centrifuged at 48,000×g for 10 min. and the resulting pellet rehomogenized in 10 mL of tissue buffer. Following an additional centrifugation at 48,000×g for 10 min., the pellet is resuspended to a protein concentration of 300 μg/mL.
Binding assays are performed in 96 well plates at a final volume of 300 μL. The assays are initiated by the addition of 150 μL membrane suspension to 150 μL of assay buffer containing ^125I-ovine-CRF (final concentration 150 pM) and various concentrations of inhibitors. […] Filters are assessed for radioactivity in a Packard TopCount. Nonspecific binding is determined in the presence of excess (10 μM) α-helical CRF. […]
IC50 values are calculated using standard methods known in the art, such as with the non-linear curve fitting program RS/1 (BBN Software Products Corp., Cambridge, Mass.).

Ki [nM]	SMILES
19	CCc1nc(-c2ccc(N(C)C)nc2C)c(CC)nc1N[C@@H]1c2ccccc2C[C@@H]1OC(C)=O [Example 1, (1R,2S)Acetic acid 1-[5-(6-dimethylamino-2-methyl-pyridin-3-yl)-3,6-diethyl-pyrazin-2-ylamino]-indan-2-yl ester]
13	CCO[C@H]1Cc2ccccc2[C@H]1Nc1nc(CC)c(-c2ccc(N(C)C)nc2C)nc1CC [Example 3, (1R,2S)[5-(6-Dimethylamino-2-methyl-pyridin-3-yl)-3,6-diethyl-pyrazin-2-yl]-(2-ethoxy-indan-1-yl)-amine]
